The source of these data is publication PMC12376128, “In vitro and In Vivo Drug Metabolism Analysis of BPI-460372 - A Covalent TEAD1/3/4 Inhibitor” (Current Drug Metabolism, 2025).

Series [1] relates to monkey hepatocytes. Description: Metabolism and metabolite formation in hepatocytes. The series is classed as in vitro ADME, cynomolgus monkey. The text has this:
(§1) All the samples were duplicates.

Series [2] relates to human hepatocytes. The series can be described thus: Metabolism and metabolite formation in hepatocytes.
Description: (§9) 10 µM BPI-460372 was incubated in five species (human, cynomolgus monkey, beagle dog, SD rat, and ICR mouse) hepatocytes (1 × 10^6 cells·min^-1) at 37 °C for 4 h. 7-EC, as positive control, was incubated for 0 h and 4 h. For blank control, hepatocytes were inactivated by adding ice-cold acetonitrile, and then the BPI-460372 solution was added. All the samples were duplicates. Incubations were stopped using the same volume of cold acetonitrile. The tube was vortexed, and the duplicate samples were combined. Metabolite profiling and identification of BPI-460372 were conducted by using UHPLC-Orbitrap-HRMS. The samples of 7-EC were analyzed by LC-MS/MS and then semi-quantified using the peak area ratio of analyte versus IS.
(§10) For hepatocyte metabolite identification, the different metabolites of BPI-460372 were detected using an ACQUITY UPLC HSS T3 column (1.8 µm, 100 mm × 2.1 mm) and ACQUITY UPLC BEH C18 column (1.7 µm, 100 mm × 2.1 mm) for rat and dog metabolite identification. The mobile phase contained a mixture of 0.1% formic acid in water (A) and 0.1% formic acid in acetonitrile (B). The gradient elution program was as follows: 0.0-1.0 min, 5% B; 1.0-7.0 min, 5%-30% B; 7.0-12.0 min, 30%-80% B; 12.0-16.0 min, 80%-95% B; 16.0-18.0 min, 95% B; 18.0-18.1 min, 95%-5% B. Then, 5% B from 18.1 to 20.0 min was maintained for equilibration. The flow rate was set to 0.5 mL/min, and the column temperature was kept at 40°C. Eluted fractions were monitored by a UV detector at 314 nm.
The subject of series [3] is rat hepatocytes. The series can be described thus: Metabolism and metabolite formation in hepatocytes. The series is classed as in vitro ADME, SD rat.
Excerpt: as §1

Series [4] relates to dog hepatocytes. The series can be described thus: Metabolism and metabolite formation in hepatocytes. Type of series: in vitro ADME, beagle dog.
Excerpt: as §1

Series [5] can be described thus: Metabolite identification in rat plasma, urine, feces and bile. The series is classed as in vivo, SD rats. Here is the method:
(§2) The plasma samples were acquired from SD rats (n=6, 3 female and 3 male) and beagle dogs (n=6, 3 female and 3 male) after administration of 12 mg/kg and 8 mg/kg of BPI-460372, respectively. The rat urine, feces, and bile samples were acquired in SD rats after administration of 6 mg/kg of BPI-460372.
(§3) Equal volume from each rat was pooled together to get 1 male and 1 female 0-24 h plasma samples. An equal percentage by volume of individual urine sample (0-8, 8-24, and 24-48 h) from 3 female and 3 male rats was pooled by time interval across rats, respectively, resulting in two pooled urine samples (1 male and 1 female). An equal percentage by weight of individual feces samples (0-8, 8-24, and 24-48 h) was pooled by time interval across female and male rats, resulting in two pooled fecal samples. An equal percentage by volume of individual bile samples (0-4, 4-8, 8-24, and 24-48 h) was pooled by time interval across female and male rats, resulting in two pooled bile samples. […] Equal volumes from 3 female and 3 male rats were pooled together to get two 0-48 h plasma samples. For blank samples of plasma, urine, and bile, equal volume was pooled across subjects. For a blank sample of feces, equal weight was pooled across rats.
(§4) The pooled plasma, feces, and bile samples were extracted by adding 3-fold volume of acetonitrile, and the mixture was vortexed (1 min) and sonicated (1 min) before centrifugation (7220 g, 5 min). The pooled urine samples were centrifuged (7220 g, 5 min). Then the supernatant was transferred into a clean tube and evaporated to dryness under the nitrogen stream. The residues were redissolved with an appropriate volume of acetonitrile/water (20: 80, v: v). After centrifugation, the redissolved solution was transferred into an HPLC vial for UHPLC-Orbitrap-HRMS (15000 g, 10 min, 4°C).

Series [6] in a line: Formation of M335 in HLMs with and without NADPH. Particulars: 45 minutes of incubation of BPI-460372 with HLMs. The series is classed as in vitro ADME, human.
The subject of series [7] is mouse hepatocytes. The series can be described thus: Metabolism and metabolite formation in hepatocytes. Type of series: in vitro ADME, ICR mouse.
Excerpt: as §1

Series [8] concerns TEAD proteins. Description: Covalent binding to TEAD proteins (in vitro). Particulars: in vitro studies.
For series [9], the system named is cysteine S-conjugate β-lyase. The series can be described thus: Effect of cysteine S-conjugate β-lyase inhibitor AOAA on the metabolism of BPI-460372 (rat urine). To be noted: 20 mg/kg BPI-460372 + 100 mg/kg AOAA, once daily 21 days, urine 0-48 h on day 21.
Description: To investigate the effect of cysteine S-conjugate β-lyase on the metabolism of BPI-460372, SD rats were treated with 20 mg/kg BPI-460372 alone (n=3, male) or 20 mg/kg BPI-460372 coadministration with 100 mg/kg cysteine S-conjugate β-lyase inhibitor AOAA (n=3, male), once daily for 21 consecutive days. On day 21, urine samples were collected at 0-8, 8-24 and 24-48 h. The same percentage of urine samples from each rat was taken at these three time intervals and mixed. The samples were analyzed by LC-MS/MS and then semi-quantified using the peak area ratio of analyte versus IS.
Series [10] can be described thus: Metabolite identification in dog plasma. The series is classed as in vivo, beagle dogs. Particulars: oral 8 mg/kg BPI-460372, average of male and female pooled samples. Here is the method:
as §2, §3, §4

Series [11] has as its system TEAD palmitoylation. The series can be described thus: Inhibition of TEAD palmitoylation (in vitro). To be noted: in vitro studies. The series is classed as biochemical.
Series [12] addresses T1, CYP2D6 (Homo sapiens, UniProt P10635). Description: Metabolic stability in recombinant human CYP isoenzymes. Further details: purchased Cypex Ltd. (Dundee, UK). The series is classed as in vitro ADME. To be noted: in 5 min. Here is the method:
(§5) To identify the specific isoform that participates in the metabolism of BPI-460372, 1 µM BPI-460372 or positive control substrates were mixed with recombinant human CYP1A2, 2B6, 2C8, 2C9, 2C19, 2D6 or 3A4 (100 pmol P450·mL^-1), and the reaction was started by the addition of NADPH (1 mM final concentration) after 5-minute preincubation at 37°C. Aliquots were maintained in acetonitrile containing IS at different time points at 0 min, 5 min, 10 min, 20 min, 30 min, and 60 min. All incubations were performed in triplicate, and the concentration of the supernatant was determined by LC-MS/MS.
(§6) A substrate depletion approach was employed to determine the intrinsic clearance (CLint (rCYPj)) for each isoform. The contribution of each isoform was estimated using equations 2 and 3. CYPj abundance was evaluated as the abundance (CYPj) of each isoform in HLMs (pmol/mg protein).

Series [13] concerns the target T1, CYP2D6. The series can be described thus: Metabolic stability in HLMs with or without specific CYP inhibitor (quinidine). Type of series: in vitro ADME. Further details: HLMs (1 mg protein·mL^-1); tissue BioIVT; host or cells: pooled human liver microsomes. To be noted: HLMs 1 mg protein/mL, substrate 1 μM, quinidine 20 µM. Here is the method: (§7) Before starting the experiments, the HLMs were thawed gently on ice. Metabolic stability incubations were performed at 37 °C. The incubations contained 100 mM phosphate buffer saline (PBS, pH 7.4), HLMs (1 mg protein·mL^-1), dimethyl sulfoxide (DMSO, blank control) or a selective CYP inhibitor, and BPI-460372 or positive control substrates (final incubation concentration, 1 μM). The incubation process started with the addition of NADPH (1 mM final concentration) after a 5-minute preincubation period. The chemical inhibitors were as follows: a-naphthoflavone (2 µM) for CYP1A2, ticlopidine (20 µM) for 2B6, quercetin (20 µM) for CYP2C8, sulfaphenazole (20 µM) for CYP2C9, ticlopidine (200 µM) for CYP2C19, quinidine (20 µM) for CYP2D6, and ketoconazole (20 µM) for CYP3A [9]. Aliquots were maintained in acetonitrile containing internal standard (IS) at various time points, such as 0 min, 5 min, 10 min, 20 min, 30 min, and 60 min. All incubations were performed in triplicate, and the concentration in the supernatant was determined by liquid chromatography-tandem mass spectrometry (LC-MS/MS).
(§8) The elimination rate constant k (min^-1) was obtained by linear regression from the natural logarithm of the […] of the parent drug and the incubation time. The inhibition rate was calculated using equation 1 [10]: […]

Series [14] deals with T2, recombinant human CYP3A4 (Homo sapiens, UniProt P08684).
T2 construct: purchased Cypex Ltd. (Dundee, UK)
Description: Metabolic stability in recombinant human CYP isoenzymes. The series is classed as in vitro ADME. To be noted: rCYP3A4, 1 µM. As to the method:
as §5, §6

The test system of series [15] is CYP3A4. Description: Metabolic stability in HLMs with or without specific CYP inhibitor (ketoconazole). The series is classed as in vitro ADME, human. To be noted: HLMs 1 mg protein/mL, substrate 1 μM, ketoconazole 20 µM. As to the method: as §7, §8
Details of series [16]: method as in PMID 32250617. Particulars: mouse whole blood, compared with compound 18 (acrylamide warhead); cited from earlier work.
On the set-up of series [17]: method as in PMID 32250617. To be noted: human whole blood, compared with compound 18 (acrylamide warhead); cited from earlier work.
On the set-up of series [18]: method as in PMID 32250617. Particulars: dog whole blood, compared with compound 18 (acrylamide warhead); cited from earlier work.
For series [19], the system named is human hepatocytes. Particulars: 0 h.
Description: as §9, §10
Series [20] relates to CYPs and GSTs. Set-up: method as in earlier work. Particulars: multiple CYPs and GSTs pathways; cited from earlier work.
Series [21] addresses T3, CYP2C9 (Homo sapiens, UniProt P11712). The series can be described thus: Metabolic stability in recombinant human CYP isoenzymes. Type of series: in vitro ADME. Further details: purchased Cypex Ltd. (Dundee, UK). Particulars: rCYP2C9, 1 µM. Here is the method: as §5, §6
The target in series [22] is T3, CYP2C9. The series can be described thus: Metabolic stability in HLMs with or without specific CYP inhibitor (sulfaphenazole). The series is classed as in vitro ADME. Set-up: HLMs (1 mg protein·mL^-1); tissue BioIVT; host or cells: pooled human liver microsomes. To be noted: 1 µM, pH 7.4. As to the method:
as §7, §8

The mark [23] stands for this setting: oral 6 mg/kg BPI-460372, average of male and female pooled samples.

Where two headings read alike, the source gives them in different places. A value given as a limit tells only on which side of the number the result lay.

T3 sequence (P11712 whole entry): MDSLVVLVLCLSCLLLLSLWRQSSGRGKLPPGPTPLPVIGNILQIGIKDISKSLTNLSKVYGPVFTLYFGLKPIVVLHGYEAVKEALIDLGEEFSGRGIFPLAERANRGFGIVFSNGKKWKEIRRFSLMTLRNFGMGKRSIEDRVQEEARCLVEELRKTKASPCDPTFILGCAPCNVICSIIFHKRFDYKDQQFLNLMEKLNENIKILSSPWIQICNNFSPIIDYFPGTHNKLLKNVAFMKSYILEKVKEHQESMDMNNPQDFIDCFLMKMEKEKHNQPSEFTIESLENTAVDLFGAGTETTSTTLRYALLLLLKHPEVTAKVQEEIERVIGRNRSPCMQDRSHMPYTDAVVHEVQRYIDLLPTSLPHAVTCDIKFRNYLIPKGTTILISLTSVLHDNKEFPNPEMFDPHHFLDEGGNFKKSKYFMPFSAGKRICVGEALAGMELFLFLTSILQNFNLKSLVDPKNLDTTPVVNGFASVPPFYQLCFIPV
T1 sequence (P10635 whole entry, canonical isoform): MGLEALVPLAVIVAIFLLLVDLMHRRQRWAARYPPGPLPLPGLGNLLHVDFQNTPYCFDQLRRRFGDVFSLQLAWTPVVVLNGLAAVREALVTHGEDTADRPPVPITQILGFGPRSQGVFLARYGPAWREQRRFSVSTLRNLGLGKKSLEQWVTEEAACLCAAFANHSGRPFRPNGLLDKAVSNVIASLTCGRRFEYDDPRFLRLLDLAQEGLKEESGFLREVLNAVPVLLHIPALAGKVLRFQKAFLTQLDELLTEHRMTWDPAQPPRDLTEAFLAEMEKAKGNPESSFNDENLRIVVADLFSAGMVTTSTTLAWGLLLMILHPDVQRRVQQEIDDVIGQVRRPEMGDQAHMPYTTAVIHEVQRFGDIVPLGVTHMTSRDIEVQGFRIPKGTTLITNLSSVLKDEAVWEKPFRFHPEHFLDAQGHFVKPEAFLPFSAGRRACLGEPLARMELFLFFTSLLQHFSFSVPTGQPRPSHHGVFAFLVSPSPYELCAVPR
T2 sequence (P08684 whole entry): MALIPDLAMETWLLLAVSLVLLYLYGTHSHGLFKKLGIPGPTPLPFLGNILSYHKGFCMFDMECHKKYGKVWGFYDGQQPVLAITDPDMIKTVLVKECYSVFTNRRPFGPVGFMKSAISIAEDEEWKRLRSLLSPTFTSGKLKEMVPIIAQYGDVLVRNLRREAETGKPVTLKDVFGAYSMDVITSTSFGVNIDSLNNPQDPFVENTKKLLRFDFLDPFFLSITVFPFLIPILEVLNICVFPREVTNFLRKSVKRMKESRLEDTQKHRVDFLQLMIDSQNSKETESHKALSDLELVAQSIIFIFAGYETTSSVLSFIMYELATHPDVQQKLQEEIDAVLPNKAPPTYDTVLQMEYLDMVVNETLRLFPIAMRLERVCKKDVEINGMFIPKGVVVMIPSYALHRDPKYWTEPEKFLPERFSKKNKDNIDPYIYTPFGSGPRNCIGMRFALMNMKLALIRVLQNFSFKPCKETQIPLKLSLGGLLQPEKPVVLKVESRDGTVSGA

Regarding `O=c1n(-c2ccc(C(F)(F)F)cc2)c2nccnc2n1C1CNC1` [M335 (BPI-460608)], the “UV (314 nm) Peak Areas Relative Abundance” value in series [1] (cynomolgus monkey hepatocytes, 10 µM BPI-460372, 4 h incubation) came out at 16.99%; in series [2] (human hepatocytes, 10 µM BPI-460372, 4 h incubation), 11.47%; in series [3] (SD rat hepatocytes, 10 µM BPI-460372, 4 h incubation), 3.9%; in series [4] (beagle dog hepatocytes, 10 µM BPI-460372, 4 h incubation) it was 18.82%; in series [7] (ICR mouse hepatocytes, 10 µM BPI-460372, 4 h incubation) it was 26.4%. Further, the “Relative abundance of MS peak areas, Rat Bile 0-48 h” value in series [5] (setting [23]) is given as 0.070%. Besides, the “Relative abundance of MS peak areas, Rat Feces 0-48 h” value in series [5] (setting [23]) is 4.83%. Moreover, the “Relative abundance of MS peak areas, Rat Urine 0-48 h” value in series [5] (setting [23]) was 13.23%. Moreover, the “Relative abundance of MS peak areas, Rat Plasma 0-24 h” value in [5] (oral 12 mg/kg BPI-460372, average of male and female pooled samples) is listed as 2.48%. Moreover, the “Formation of M335 without NADPH versus HLMs+NADPH group” value in [6] was “comparable”. Besides, the “Covalent binding to TEAD proteins” value in [8] was “do not covalently bind”. The “Area ratio in rat urine, mean (%CV)” value in series [9] is given as 1.41 (48). The “Relative abundance of MS peak areas, Dog Plasma 0-48 h” value in [10] is on record as 8.45%. For the same compound, the “Activity: inhibition of TEAD palmitoylation” value in series [11] was “inactive”.
For the compound `COc1ccc2c(c1)[C@]13CCCC[C@@H]1[C@H](C2)N(C)CC3` [Dextromethorphan, reference compound], the “Extent of metabolism in recombinant human CYP2D6” value in series [12] is “completely metabolized”. The “Inhibition Rate” value in [13] stood at 87.1%.
On to `Cc1ncc2n1-c1ccc(Cl)cc1C(c1ccccc1F)=NC2` [Midazolam, midazolam, reference compound], for which the “CLint (rCYPj)” value in [14] came to 1.93 µL/min/pmol. In addition, in series [15], the “Inhibition Rate” value came to 99.7%.
Consider `C=C(F)C(=O)N1CCN(c2nc(OC[C@@H]3CCCN3C)nc3c2CCN(c2cccc4cccc(Cl)c24)C3)C[C@@H]1CC#N` [Adagrasib], for which the “Stability in whole blood” value in series [16], in [17] and in [18] was “higher stability” in each case.
For `CCOc1ccc2ccc(=O)oc2c1` [7-EC, 7-ethoxycoumarin, reference compound], the “Area Ratio T0 h” value in [1] (monkey hepatocytes, 7-EC incubation, 0 h) is on record as 2.65E+07; in series [3] (rat hepatocytes, 7-EC incubation, 0 h), 2.64E+07; in series [4] (dog hepatocytes, 7-EC incubation, 0 h), 2.18E+07; in [7] (mouse hepatocytes, 7-EC incubation, 0 h), 2.39E+07; in series [19], 3.36E+07. The “Area Ratio T4 h” value in series [1] (monkey hepatocytes, 7-EC incubation, 4 h) is recorded as 9.51E+04; in series [2] (human hepatocytes, 7-EC incubation, 4 h), 7.50E+06; in [3] (rat hepatocytes, 7-EC incubation, 4 h), 6.62E+06; in [4] (dog hepatocytes, 7-EC incubation, 4 h) it was 1.01E+05; in series [7] (mouse hepatocytes, 7-EC incubation, 4 h) it was 1.46E+05. Also, the “Proportion of 7-EC remaining in hepatocytes after 4 h incubation” value is on record as 0.36% in series [1] (monkey, hepatocytes); 22.32% in [2] (human, hepatocytes); 25.08% in series [3] (rat, hepatocytes); 0.46% in [4] (dog, hepatocytes); 0.61% in series [7] (mouse, hepatocytes).
As for `C=CC(=O)N1C[C@H](Nc2ncnc3[nH]ccc23)CC[C@@H]1C` [Ritlecitinib], in series [20], the “Contribution of any single route to the total metabolism” value was no more than 25%.
In the case of `O=C(O)Cc1ccccc1Nc1c(Cl)cccc1Cl` [Diclofenac, diclofenac, reference compound], the “CLint (rCYPj)” value in series [21] came to 3.53 µL/min/pmol. Also, in series [22], the “Inhibition Rate” value is recorded as 98.2%.
